According to patent US20230242530A1, “8-(AZETIDIN-1-YL)-[1,2,4]TRIAZOLO[1,5-A]PYRIDINYL COMPOUNDS, COMPOSITIONS AND METHODS OF USE THEREOF” (Genentech, Inc., priority 2016, published 2023):

Assays:
[1] = target: T1, isolated recombinant JAK1 kinase domain (Homo sapiens, UniProt P23458); assay: JAK enzyme assay, JAK1 kinase domain (Caliper LabChip); format: biochemical; settings: 1.5 nM JAK1, ATP 25 μM, Morrison tight binding model
T1 construct: isolated recombinant JAK1 and JAK2 kinase domain
Procedure: (§1) JAK Enzyme Assays were Carried Out as Follows:
(§2) The activity of the isolated recombinant JAK1 and JAK2 kinase domain was measured by monitoring phosphorylation of a peptide derived from JAK3 (Val-Ala-Leu-Val-Asp-Gly-Tyr-Phe-Arg-Leu-Thr-Thr, fluorescently labeled on the N-terminus with 5-carboxyfluorescein) using the Caliper LabChip® technology (Caliper Life Sciences, Hopkinton, Mass.). […] Reactions were incubated at 22 °C in 384-well polypropylene microtiter plates for 30 minutes and then stopped by addition of 25 μL of an EDTA containing solution (100 mM HEPES buffer (pH 7.2), 0.015% Brij-35, 150 mM EDTA), resulting in a final EDTA concentration of 50 mM. After termination of the kinase reaction, the proportion of phosphorylated product was determined as a fraction of total peptide substrate using the Caliper LabChip® 3000 according to the manufacturer's specifications. Ki values were then determined using the Morrison tight binding model (Morrison, J. F., Biochim. Biophys. Acta. 185:269-296 (1969); William, J. W. and Morrison, J. F., Meth. Enzymol., 63:437-467 (1979)) modified for ATP-competitive inhibition [Ki=Ki,app/(1+[ATP]/Km,app)].

[2] = target: T2, isolated recombinant JAK2 kinase domain (Homo sapiens, UniProt O60674); assay: JAK enzyme assay, JAK2 kinase domain (Caliper LabChip); format: biochemical; settings: 0.2 nM JAK2, ATP 25 μM, Morrison tight binding model
T2 construct: isolated recombinant JAK1 and JAK2 kinase domain
Procedure: as §1, §2

[3] = system: JAK1-dependent STAT6 phosphorylation downstream of IL-13 stimulation in BEAS-2B cells; assay: JAK1 pathway assay in cell lines: IL-13 p-STAT6 BEAS-2B; format: cell-based; settings: BEAS-2B human bronchial epithelial cells, 1 hr compound, IL-13 15 min, MSD readout
Procedure: JAK1 Pathway Assay in Cell Lines was Carried Out as Follows:
Inhibitor potency (EC50) was determined in cell-based assays designed to measure JAK1 dependent STAT phosphorylation. As noted above, inhibition of IL-4, IL-13, and IL-9 signalling by blocking the Jak/Stat signaling pathway can alleviate asthmatic symptoms in pre-clinical lung inflammation models (Mathew et al., 2001, J Exp Med 193(9): 1087-1096; Kudlacz et. al., 2008, Eur J. Pharmacol 582(1-3): 154-161).
In one assay approach, TF-1 human erythroleukemia cells obtained from the American Type Culture Collection (ATCC; Manassas, Va.) were used to measure JAK1-dependent STAT6 phosphorylation downstream of IL-13 stimulation. Prior to use in the assays, TF-1 cells were starved of GM-CSF overnight in OptiMEM medium (Life Technologies, Grand Island, N.Y.) supplemented with 0.5% charcoal/dextran stripped fetal bovine serum (FBS), 0.1 mM non-essential amino acids (NEAA), and 1 mM sodium pyruvate. The assays were run in 384-well plates in serum-free OptiMEM medium using 300,000 cells per well. In a second assay approach, BEAS-2B human bronchial epithelial cells obtained from ATCC were plated at 100,000 cells per well of a 96-well plate one day prior to the experiment. The BEAS-2B assay was run in complete growth medium (bronchial epithelial basal medium plus bulletkit; Lonza; Basel, Switzerland).
Test compounds were serially diluted 1:2 in DMSO and then diluted 1:50 in medium just before use. Diluted compounds were added to the cells, for a final DMSO concentration of 0.2%, and incubated for 30 mi (for the TF-1 assay) or 1 hr (for the BEAS-2B assay) at 37 QC. Then, cells were stimulated with human recombinant cytokine at their respective EC90 concentrations, as previously determined for each individual lot. Cells were stimulated with IL-13 (R&D Systems, Minneapolis, Minn.) for 15 min at 37 °C. The TF-1 cell reactions were stopped by the direct addition of 10× lysis buffer (Cell Signaling Technologies, Danvers, Mass.), whereas the BEAS-2B cell incubations were halted by the removal of medium and addition of 1× lysis buffer. The resultant samples were frozen in the plates at −80 °C. Compound mediated inhibition of STAT6 phosphorylation was measured in the cell lysates using MesoScale Discovery (MSD) technology (Gaithersburg, Md.). EC50 values were determined as the concentration of compound required for 50% inhibition of STAT phosphorylation relative to that measured for the DMSO control.

T2 sequence (O60674 849-1124 limits assumed): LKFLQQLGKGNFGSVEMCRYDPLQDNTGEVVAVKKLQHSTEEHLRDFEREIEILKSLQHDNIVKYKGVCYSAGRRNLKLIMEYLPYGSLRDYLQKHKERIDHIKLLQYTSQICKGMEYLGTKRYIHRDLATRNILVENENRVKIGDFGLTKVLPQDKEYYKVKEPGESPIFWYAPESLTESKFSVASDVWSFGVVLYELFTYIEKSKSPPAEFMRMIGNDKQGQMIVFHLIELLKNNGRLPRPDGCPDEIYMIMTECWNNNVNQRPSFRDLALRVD
T1 sequence (P23458 875-1153 limits assumed): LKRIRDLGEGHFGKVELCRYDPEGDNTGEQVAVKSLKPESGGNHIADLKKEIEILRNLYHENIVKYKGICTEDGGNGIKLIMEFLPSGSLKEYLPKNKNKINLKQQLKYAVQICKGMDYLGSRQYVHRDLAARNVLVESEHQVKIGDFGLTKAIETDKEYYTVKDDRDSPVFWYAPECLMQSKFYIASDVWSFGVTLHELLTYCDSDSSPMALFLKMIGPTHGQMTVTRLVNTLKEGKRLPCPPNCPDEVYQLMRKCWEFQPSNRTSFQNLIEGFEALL

Row | Structure (SMILES) | Ki [1] | Ki [2] | EC50 [3]
1 | CCc1cnn(C2(CC#N)CN(c3cccn4nc(Nc5cnn(CC(=O)N6CCC(N(C)C7COC7)CC6)c5)nc34)C2)c1 [Example 34, 2-[3-(4-ethylpyrazol-1-yl)-1-[2-[[1-[2-[4-[methyl(oxetan-3-yl)amino]-1-piperidyl]-2-oxo-ethyl]pyrazol-4-yl]amino]-[1,2,4]triazolo[1,5-a]pyridin-8-yl]azetidin-3-yl]acetonitrile] | 0.4 nM | 0.3 nM | 15 nM
2 | CN1CCN(C(=O)Cn2cc(Nc3nc4c(N5CC(CC#N)(c6cccc(Cl)c6)C5)cccn4n3)cn2)CC1 [Example 35, 2-[3-(3-chlorophenyl)-1-[2-[[1-[2-(4-methylpiperazin-1-yl)-2-oxo-ethyl]pyrazol-4-yl]amino]-[1,2,4]triazolo[1,5-a]pyridin-8-yl]azetidin-3-yl]acetonitrile] | 0.8 nM | 2.8 nM | 39 nM
3 | CCc1cnn(C2(CC#N)CN(c3cccn4nc(Nc5ccc(C(=O)N6CCC(N7CCOCC7)CC6)cc5)nc34)C2)c1 [Example 36, 2-[3-(4-ethylpyrazol-1-yl)-1-[2-[4-(4-morpholinopiperidine-1-carbonyl)anilino]-[1,2,4]triazolo[1,5-a]pyridin-8-yl]azetidin-3-yl]acetonitrile] | 0.4 nM | 1.6 nM | 52 nM
4 | CCc1cnn(C2(CC#N)CN(c3cccn4nc(Nc5ccc(C(=O)N6CCN(C7CCOCC7)CC6)cc5)nc34)C2)c1 [Example 37, 2-[3-(4-ethylpyrazol-1-yl)-1-[2-[4-(4-tetrahydropyran-4-ylpiperazine-1-carbonyl)anilino]-[1,2,4]triazolo[1,5-a]pyridin-8-yl]azetidin-3-yl]acetonitrile] | 0.5 nM | 2.9 nM | 23 nM
5 | CCc1cnn(C2(CC#N)CN(c3cccn4nc(Nc5ccc(C(=O)N6CCN(C)CC6)cc5)nc34)C2)c1 [Example 38, 2-(3-(4-ethyl-1H-pyrazol-1-yl)-1-(2-((4-(4-methylpiperazine-1-carbonyl)phenyl)amino)-[1,2,4]triazolo[1,5-a]pyridin-8-yl)azetidin-3-yl)acetonitrile] | 0.7 nM | 4.1 nM | 615 nM
6 | CCc1cnn(C2(CC#N)CN(c3cccn4nc(Nc5cnn(CC(=O)N6CCC(CN7CCN(C(=O)OC)CC7)CC6)c5)nc34)C2)c1 [Example 39, methyl4-[[1-[2-[4-[[8-[3-(cyanomethyl)-3-(4-ethylpyrazol-1-yl)azetidin-1-yl]-[1,2,4]triazolo[1,5-a]pyridin-2-yl]amino]pyrazol-1-yl]acetyl]-4-piperidyl]methyl]piperazine-1-carboxylate] | 0.3 nM | 1.6 nM | 24 nM
7 | CN1CCN(C(=O)Cn2cc(Nc3nc4c(N5CC(CC#N)(n6cc(CCF)cn6)C5)cccn4n3)cn2)CC1 [Example 40, 2-[3-[4-(2-fluoroethyl)pyrazol-1-yl]-1-[2-[[1-[2-(4-methylpiperazin-1-yl)-2-oxo-ethyl]pyrazol-4-yl]amino]-[1,2,4]triazolo[1,5-a]pyridin-8-yl]azetidin-3-yl]acetonitrile] | 0.3 nM | 0.2 nM | 18 nM
8 | CCc1cnn(C2(CC#N)CN(c3cccn4nc(Nc5cnn(CC(=O)N6CCN(CC)CC6)c5)nc34)C2)c1 [Example 41] | 0.5 nM | 1.9 nM | 65 nM
9 | CCc1cnn(C2(CC#N)CN(c3cccn4nc(Nc5cnn(CC(=O)N6CCC(CN7CCN(CC(=O)N(C)C)CC7)CC6)c5)nc34)C2)c1 [Example 42, 2-[4-[[1-[2-[4-[[8-[3-(cyanomethyl)-3-(4-ethylpyrazol-1-yl)azetidin-1-yl]-[1,2,4]triazolo[1,5-a]pyridin-2-yl]amino]pyrazol-1-yl]acetyl]-4-piperidyl]methyl]piperazin-1-yl]-N,N-dimethyl-acetamide] | 0.4 nM | 2.2 nM | 42 nM
